Laboratory results published in patent US11517591B2, “Immunogenic peptides specific to BCMA and TACI antigens” (Dana-Farber Cancer Institute, Inc., priority 2017, dated 2022).

Assays:
HLA-A2 molecule [1] = molecular target: T1, HLA-A2 molecule (Homo sapiens, UniProt P04439, D140Y/D185E/D98H/E176V/E277Q/G131W/G231S/I119V/I121R/I166T/I218V/L300P/L318F/N151K/N90K/P208A/P217A/Q86G/Q94H/R138H/R169H/T345S); assay: HLA-A2 binding affinity assay on peptide-pulsed T2 cells (HLA-A2 up-regulation, flow cytometry MFI)
T1 construct: endogenous in cells; host or cells: T2 cell line (human B and T cell hybrid), provided by Dr. J. Molldrem
Description: The listed BCMA peptides were evaluated for HLA-A2-specific binding capacity using the T2 cell line. In the assay, T2 cells were washed, resuspended in serum-free AIM-V medium to a final concentration of 1×10^6 cells/ml and transferred into wells of a 24-well tissue culture plate. The cells were pulsed with different concentrations of respective BCMA peptide (0-200 μg/ml) plus 3 μg/ml human β2-microglobulin (Sigma) and incubated at 37° C., 5% CO2 in humidified air. Following overnight incubation, the cells were washed, stained with mouse anti-human HLA-A2-FITC mAb for 15 minutes at 4° C., washed and analyzed using a FACSort™ flow cytometer with CellQuest™ v2.1 software (Becton Dickinson, San Jose, Calif.). […] Among the BCMA peptides evaluated, “#4. […] (FIG. 2).
(§1) T2 cells were pulsed overnight with various doses of peptide plus β2-microglobulin (3 μg/ml) (Sigma, St Louis, Mo.). Following overnight incubation, the cells were stained with HLA-A2-PE mAb and analyzed using a FACSCanto™ flow cytometer (BD). Peptide/HLA-A2 complex stability was measured on peptide loaded T2 cells at 0, 2, 4, 6 and 14 hours post-brefeldin A treatment by staining with HLA-A2-PE mAb and flow cytometric analysis.
as §1, with “concentrations” for “doses”, “The stability of peptide/HLA-A2” for “Peptide/HLA-A2”, “binding” for “stability”, “treatment followed” for “treatment”

HLA-A2 molecule [2] = molecular target: T1, HLA-A2 molecule; assay: Peptide/HLA-A2 complex stability on peptide-loaded T2 cells post-brefeldin A; format: binding
Description: The native and heteroclitic BCMA and TACI peptides were examined for HLA-A2 binding stability using the T2 cell line. T2 cells were pulsed with the respective peptide. After overnight incubation, the cells were washed to remove unbound peptide; they were evaluated for binding affinity as shown above and stability as following. The cells were incubated with 10 μg/ml Brefeldin A (Sigma) at 37° C. and 5% CO2 for 1 hour to block cell surface expression of newly synthesized HLA-A2 molecules. Peptide/HLA-A2 binding stability was evaluated at 0, 2, 4, 6 and 18 hours post-Brefeldin A treatment. Following the incubation period, the cells were harvested, washed, stained with mouse anti-human HLA-A2-FITC mAb and analyzed by flow cytometry. […] Therefore, the Heteroclitic #4 BCMA72-80 (YLMFLLRKI (SEQ ID NO: 13)) and Heteroclitic #3. TACI154-162 (YLSADQVAL (SEQ ID NO: 16) peptides were selected for further evaluation of their immunogenic potential to generate MM-specific cytotoxic T cells (CTLs).
as §1
as §1, with “concentrations” for “doses”, “The stability of peptide/HLA-A2” for “Peptide/HLA-A2”, “binding” for “stability”, “treatment followed” for “treatment”

[3] = test system: peripheral blood mononuclear cells from HLA-A2+ normal donors; assay: Generation and phenotypic characterization of BCMA-CTL stimulated with free or nanoparticle-encapsulated BCMA peptide; format: cell-based, human
Description: BCMA peptide-specific CTL (BCMA-CTL) were generated ex vivo by repeated stimulation of peripheral blood mononuclear cells isolated from HLA-A2^+ normal donors' with (1) HLA-A2 specific BCMA immunogenic peptide (50 ug/ml), (2) a blank nanoparticle (PLGA or liposome) without peptide, or (3) the BCMA peptide (50 ug/ml) encapsulated nanoparticle (PLGA/peptide or liposome/peptide). PBMC were cultured in DMEM medium supplemented with 10% human AB serum (BioWhittaker) and pulsed weekly with the appropriate BCMA peptide for a total of 4 or 5 cycles. IL-2 (50 U/ml) was added to the T cell cultures two days after the second stimulation.
BCMA peptide-specific CD8^+ CTL were evaluated for Naïve: Memory cell development and expression of CD28 co-stimulatory molecule by flow cytometry. In addition, BCMA peptide-specific CD8^+ CTL were assessed within the cultures by staining with BCMA peptide-specific Tetramer-PE. Following tetramer staining at 37° C. for 30 min, cells were washed and stained with CD8-FITC and CD28-APC mAbs. After staining, cells were washed, fixed in 2% paraformaldehyde, acquired using a LSRII Fortessa™ flow cytometer, and analyzed using FACS DIVA™ v8.0 (BD) or FlowJo v10.0.7 (Tree star, Ashland, Oreg.) software. BCMA-CTL were analyzed for the presence\frequency of specific memory (central memory, effector memory)/non-memory populations within the total gated CD3^+CD8^+ T cell population.

[4] = after the 5-cycle of peptide stimulation

With “YLMFLLRKI [heteroclitic BCMA72-80, heteroclitic BCMA peptide]” the “HLA-A2 binding affinity, heteroclitic vs native peptide” value (HLA-A2 molecule [1]; Example 4, FIGS. 4 and 5) was “increased from their native peptide”, the “change in HLA-A2 binding affinity of heteroclitic BCMA peptide compared to native peptide” value (HLA-A2 molecule [1]; Example 12, n=3, p<0.05) was “highest increase in HLA-A2 binding affinity” and the “HLA-A2 binding stability, heteroclitic vs native peptide” value (HLA-A2 molecule [2]; 50 ug/ml, 0, 2, 4, 6 and 18 hours post-Brefeldin A, Example 4, FIGS. 6 and 7) was “significant improvement in their HLA-A2 affinity at all the time points evaluated”. The “HLA-A2 affinity and stability at each time point, compared with HIV-Gag77-85 positive control” value (HLA-A2 molecule [2]; Example 12) was “highest level of HLA-A2 affinity and stability”, the “HLA-A2 stability of heteroclitic vs native BCMA peptide” value (HLA-A2 molecule [2]; Example 12) was “further enhanced” and the “total CD45RO+ memory CTL” value ([3]; 3′ stimulation) was 15.3%. The “total CD45RO+ memory CTL” value ([3]; 4′ stimulation) was 19.5%, the “total CD45RO+ memory CTL” value ([3]; 5′ stimulation) was 79.0% and the “central memory (CM) CD8+ T cell subset” value ([3]; after 1 cycle of stimulation) was 2.9%. For the same sequence, the “effector memory (EM) CD8+ T cell subset” value ([3]; after 1 cycle of stimulation) was 5.7%, the “central memory (CM) CD8+ T cell subset” value ([3]; after 3 cycles of stimulation) was 12.4% and the “effector memory (EM) CD8+ T cell subset” value ([3]; after 3 cycles of stimulation) was 11.0%. The “central memory (CM) CD8+ T cell subset” value [3, 4] was 3.5% and the “effector memory (EM) CD8+ T cell subset” value [3, 4] was 95.4%.
